Measurements reported in patent publication US20220264878A1, “HERBICIDAL COMPOSITION CONTAINING R-TYPE PYRIDYLOXY CARBOXYLIC ACID DERIVATIVE AND USE THEREOF” (Qingdao Kingagroot Chemical Compound Co., Ltd., priority 2019, published 2022).

Assays:
Format in all cases: in vivo
Amaranthus retroflexus = assay: Post-emergence foliage spray, pot culture, fresh weight inhibition (Tables 151-206; 20 days)
Description: (§1) The above weeds were cultivated by a pot culture method. […] Full and uniform weed seeds were selected, soaked in warm water at 25° C. for 6 hours, and germinated in a 28° C. biochemical incubator (darkness). The weed seeds that had just germinatedwere evenly placed on the surface of the soil and then covered with 0.5-1 cm soil according to the sizes of seeds.
(§2) The technical materials were all dissolved in acetone, and diluted with an aqueous solution containing 0.1% emulsifier Tween-80. The dilution is performed as required.
(§3) A ratio of the active ingredient A to the active ingredient B and amounts thereof in each group depends on the characteristics and toxicity of the two agents, as well as the main application purpose of a corresponding formulation. Based on the pre-tests in this study, the dosage of the active ingredient A and B applied alone and in combination were shown in the tables. Water containing the solvent and emulsifier same with the above groups but free of the agents was used as a blank control.
(§4) In the stage of weeds with 3˜4 leaves, the weeds were thinned out to maintain 15 weeds per pot and 45 weeds for each treatment, then continued to be cultured to 4˜5 leaves stage of grassy weeds, 5˜6 leaves stage of broadleaf weeds, and treated.
(§5) The well-cultured weeds were evenly placed on a platform with an area of 0.5 m^2, and a solution of agents was sprayed on the stems and leaves thereof by the 3WP-2000-type walking spray tower at a dosage of 450 kg/ha and at a spray pressure of 0.3 MPa. After all the solution was sprayed, the valve was closed. After 30 seconds, the door of the spray tower was opened, and the nutritional bowl was taken out. Then the valve was opened, and the spray tube was cleaned by spraying 50 ml of water.
(§6) A pot-culture method was employed. For the cultivation of weeds, please refer to the Section 1.1), and “Pesticide guidelines for laboratory bioactivity tests—herbicides”. As to a method for applying agents, please refer to the section 2.3.2), that is, a foliage treatment was employed. After the treatment, the weeds were routinely cultured in a greenhouse.
(§7) A method for investigating absolute number was employed, wherein whole seedlings of survival weeds were cut off with a blade along the soil surface, and the fresh weight of the weeds was weighed with an analytical balance. For dead weeds, the fresh weight thereof was zero.
(§8) Wherein, in the formula, X represented the fresh weight inhibition rate of the active ingredient A in a dosage of P, and Y represented the fresh weight inhibition rate of the active ingredient B in a dosage of Q.

Capsella bursa-pastoris = assay: as above
Description: as §1, §2, §3, §4, §5, §6, §7, §8

Alopecurus japonicus = assay: as above
Description: (§9) Table 151-206: Digitaria sanguinalis, Amaranthus retroflexus, Conyza Canadensis, Capsella bursa-pastoris, Eleusine indica were collected in Huangdao of Shandong Province, Sinapis arvensis were collected in Sixian of Anhui Province, Alopecurus japonicus were collected in Tianchang of Anhui Province, Veronica didyma were collected in Siyang of Jiangsu Province.
as §1
(§10) The culture was carried out in a controllable sunlight greenhouse at 20 to 30° C., in natural light, and relative humidity of 57% to 72%.
as §2, §3
(§11) Table 1-48, 51-98, 101-148, 151-206: […] per treatment, that is, a total of 60 weeds were treated in one treatment.
as §4, with “Table 151-206: The agents were used for only once in the experiment. In” for “In”
as §5, §6, §7
(§12) Table 151-206: The investigation was performed after 20 days of the treatment for only once.
(§13) Theoretical fresh weight inhibition rate of a combination of two active ingredients in each group was calculated by the Gowing method (E0=X+Y−X*Y/100), and then compared with an actually measured inhibition rate (E), thereby effect of the combination (hereafter referred to as combined effect) on weeds was evaluated: the value of E-E0, which was greater than 10%, corresponded to a synergistic effect, the value of E-E0, which was less than −10%, corresponded to an antagonistic effect, and the value of E-E0, which was from −10% to 10%, corresponded to an additional effect.

Digitaria sanguinalis = assay: as above
Description: as §9, §1, §10, §2, §3, §11
as §4, with “Table 151-206: The agents were used for only once in the experiment. In” for “In”
as §5, §6, §7, §12, §13

Eleusine indica [1] = assay: as above
Description: as §9, §1, §10, §2, §3, §11
as §4, with “Table 151-206: The agents were used for only once in the experiment. In” for “In”
as §5, §6, §7, §12, §13

Sinapis arvensis = assay: as above
Description: as §9, §1, §10, §2, §3, §11
as §4, with “Table 151-206: The agents were used for only once in the experiment. In” for “In”
as §5, §6, §7, §12, §13

Chloris virgata = assay: Post-emergence foliage spray, pot culture, fresh weight inhibition (Tables 1-48, 51-98, 101-148; 24 days)
Description: (§14) Table 1-48, 51-98, 101-148: Echinochloa crusgalli var. zelayensis, Eclipta prostrate, Galium aparine L., Alopecurus aequalis, Alopecurus japonicus, Lindernia procumbens, Veronica persica^1, Malachium aquaticum, Beckmannia syzigachne, Stellaria media were collected in Huai'an of Jiangsu Province; Commelina communis, Sonchus arvensis, Setaria glauca, Chloris virgata, Setaria faberi, Sonchus oleraceus L., Echinochloa oryzoides, Cirsium setosum, Xanthium strumarium were collected in Qiqiha'er of Heilongjiang Province; Sinapis arvensis, Veronica persica^2 were collected in Zhumadian of Henan Province; Ludwigia prostrate, Ammannia arenaria were collected in Zhuji of Zhejiang Province; Amaranthus retrojlexus, Descurainia sophia, Digitaria sanguinalis, Setaria viridis, Conyza Canadensis, Capsella bursa-pastoris, Eleusine indica, Ipomoea purpurea, Abutilon theophrasti, Chenopodium album, Acalypha australis, Solanum nigrum were collected in Qingdao of Shandong Province; Echinochloa caudate were collected in Pingluo of Ningxia Province.
as §1, §10, §2, §3, §11
as §4, with “Table 1-48, 51-98, 101-148: The agents were used for only once in the experiment. In” for “In”, “5˜6” for “4˜5”, “6˜7” for “5˜6”
as §5, §6, §7
(§15) Table 1-48, 51-98, 101-148, 207-216: The investigation was performed after 24 days of the treatment for only once.

Eleusine indica [2] = assay: as above
Description: as §14, §1, §10, §2, §3, §11
as §4, with “Table 1-48, 51-98, 101-148: The agents were used for only once in the experiment. In” for “In”, “5˜6” for “4˜5”, “6˜7” for “5˜6”
as §5, §6, §7, §15

[3] = B alone 75 g a.i./ha, 20 days after treatment
[4] = B alone 150 g a.i./ha, 20 days after treatment
[5] = B alone 300 g a.i./ha, 20 days after treatment
[6] = B alone 600 g a.i./ha, 20 days after treatment

## CP(=O)(O)CCC(N)C(=O)O (stereo not shown) [glufosinate ammonium]
Amaranthus retroflexus; B 75 g a.i./ha, 20 days
  Control effect (%) of B applied alone in corresponding dose: 10.2%
Amaranthus retroflexus; B 150 g a.i./ha, 20 days
  Control effect (%) of B applied alone in corresponding dose: 19.6%
Amaranthus retroflexus; B 300 g a.i./ha, 20 days
  Control effect (%) of B applied alone in corresponding dose: 28.6%
Amaranthus retroflexus; B 600 g a.i./ha, 20 days
  Control effect (%) of B applied alone in corresponding dose: 54.1%
Amaranthus retroflexus; [3]
  Control effect (%) of B applied alone in corresponding dose: 10.2%
Amaranthus retroflexus; [4]
  Control effect (%) of B applied alone in corresponding dose: 19.6%
Amaranthus retroflexus; [5]
  Control effect (%) of B applied alone in corresponding dose: 28.6%
Amaranthus retroflexus; [6]
  Control effect (%) of B applied alone in corresponding dose: 54.1%
Capsella bursa-pastoris; B 75 g a.i./ha, 20 days
  Control effect (%) of B applied alone in corresponding dose: 2.1%
Capsella bursa-pastoris; B 150 g a.i./ha, 20 days
  Control effect (%) of B applied alone in corresponding dose: 8.7%
Capsella bursa-pastoris; B 300 g a.i./ha, 20 days
  Control effect (%) of B applied alone in corresponding dose: 15.3%
Capsella bursa-pastoris; B 600 g a.i./ha, 20 days
  Control effect (%) of B applied alone in corresponding dose: 34.5%
Capsella bursa-pastoris; [3]
  Control effect (%) of B applied alone in corresponding dose: 2.1%
Capsella bursa-pastoris; [4]
  Control effect (%) of B applied alone in corresponding dose: 8.7%
Capsella bursa-pastoris; [5]
  Control effect (%) of B applied alone in corresponding dose: 15.3%
Capsella bursa-pastoris; [6]
  Control effect (%) of B applied alone in corresponding dose: 34.5%

## O=C(O)CNCP(=O)(O)O [glyphosate]
Alopecurus japonicus; B 75 g a.i./ha, 20 days
  Control effect (%) of B applied alone in corresponding dose: 7.6%
Alopecurus japonicus; B 150 g a.i./ha, 20 days
  Control effect (%) of B applied alone in corresponding dose: 19.5%
Alopecurus japonicus; B 300 g a.i./ha, 20 days
  Control effect (%) of B applied alone in corresponding dose: 30.8%
Alopecurus japonicus; B 600 g a.i./ha, 20 days
  Control effect (%) of B applied alone in corresponding dose: 66.9%
Alopecurus japonicus; [3]
  Control effect (%) of B applied alone in corresponding dose: 7.6%
Alopecurus japonicus; [4]
  Control effect (%) of B applied alone in corresponding dose: 19.5%
Alopecurus japonicus; [5]
  Control effect (%) of B applied alone in corresponding dose: 30.8%
Alopecurus japonicus; [6]
  Control effect (%) of B applied alone in corresponding dose: 66.9%
Digitaria sanguinalis; B 75 g a.i./ha, 20 days
  Control effect (%) of B applied alone in corresponding dose: 12.3%
Digitaria sanguinalis; B 150 g a.i./ha, 20 days
  Control effect (%) of B applied alone in corresponding dose: 24.6%
Digitaria sanguinalis; B 300 g a.i./ha, 20 days
  Control effect (%) of B applied alone in corresponding dose: 43.5%
Digitaria sanguinalis; B 600 g a.i./ha, 20 days
  Control effect (%) of B applied alone in corresponding dose: 76.4%
Digitaria sanguinalis; [3]
  Control effect (%) of B applied alone in corresponding dose: 12.3%
Digitaria sanguinalis; [4]
  Control effect (%) of B applied alone in corresponding dose: 24.6%
Digitaria sanguinalis; [5]
  Control effect (%) of B applied alone in corresponding dose: 43.5%
Digitaria sanguinalis; [6]
  Control effect (%) of B applied alone in corresponding dose: 76.4%
Eleusine indica [1]; B 75 g a.i./ha, 20 days
  Control effect (%) of B applied alone in corresponding dose: 6.9%
Eleusine indica [1]; B 150 g a.i./ha, 20 days
  Control effect (%) of B applied alone in corresponding dose: 13.6%
Eleusine indica [1]; B 300 g a.i./ha, 20 days
  Control effect (%) of B applied alone in corresponding dose: 21.3%
Eleusine indica [1]; B 600 g a.i./ha, 20 days
  Control effect (%) of B applied alone in corresponding dose: 68.9%
Eleusine indica [1]; [3]
  Control effect (%) of B applied alone in corresponding dose: 6.9%
Eleusine indica [1]; [4]
  Control effect (%) of B applied alone in corresponding dose: 13.6%
Eleusine indica [1]; [5]
  Control effect (%) of B applied alone in corresponding dose: 21.3%
Eleusine indica [1]; [6]
  Control effect (%) of B applied alone in corresponding dose: 68.9%
Sinapis arvensis; B 75 g a.i./ha, 20 days
  Control effect (%) of B applied alone in corresponding dose: 2.5%
Sinapis arvensis; B 150 g a.i./ha, 20 days
  Control effect (%) of B applied alone in corresponding dose: 9.4%
Sinapis arvensis; B 300 g a.i./ha, 20 days
  Control effect (%) of B applied alone in corresponding dose: 19.8%
Sinapis arvensis; B 600 g a.i./ha, 20 days
  Control effect (%) of B applied alone in corresponding dose: 37.2%
Sinapis arvensis; [3]
  Control effect (%) of B applied alone in corresponding dose: 2.5%
Sinapis arvensis; [4]
  Control effect (%) of B applied alone in corresponding dose: 9.4%
Sinapis arvensis; [5]
  Control effect (%) of B applied alone in corresponding dose: 19.8%
Sinapis arvensis; [6]
  Control effect (%) of B applied alone in corresponding dose: 37.2%

## CS(=O)(=O)c1ccc(C(=O)C2C(=O)CCCC2=O)c([N+](=O)[O-])c1 [mesotrione]
Chloris virgata; B 15 g a.i./ha
  Control effect (%) of B applied alone in corresponding dose: 6.5%
Chloris virgata; B 30 g a.i./ha
  Control effect (%) of B applied alone in corresponding dose: 13.4%
Chloris virgata; B 60 g a.i./ha
  Control effect (%) of B applied alone in corresponding dose: 38.3%
Chloris virgata; B 120 g a.i./ha
  Control effect (%) of B applied alone in corresponding dose: 75.2%
Eleusine indica [2]; Table 82, 15 g a.i./ha
  Control effect (%) of B applied alone in corresponding dose: 4.0%
Eleusine indica [2]; Table 82, 30 g a.i./ha
  Control effect (%) of B applied alone in corresponding dose: 10.9%
Eleusine indica [2]; Table 82, 60 g a.i./ha
  Control effect (%) of B applied alone in corresponding dose: 36.9%
Eleusine indica [2]; Table 82, 120 g a.i./ha
  Control effect (%) of B applied alone in corresponding dose: 75.0%

## CS(=O)(=O)c1ccc(C(=O)C2C(=O)CCCC2=O)c(Cl)c1COCC(F)(F)F [tembotrione]
Chloris virgata; B 3.75 g a.i./ha
  Control effect (%) of B applied alone in corresponding dose: 4.0%
Chloris virgata; B 7.5 g a.i./ha
  Control effect (%) of B applied alone in corresponding dose: 12.3%
Chloris virgata; B 15 g a.i./ha
  Control effect (%) of B applied alone in corresponding dose: 41.0%
Chloris virgata; B 30 g a.i./ha
  Control effect (%) of B applied alone in corresponding dose: 73.4%
Eleusine indica [2]; Table 83, 3.75 g a.i./ha
  Control effect (%) of B applied alone in corresponding dose: 5.4%
Eleusine indica [2]; Table 83, 7.5 g a.i./ha
  Control effect (%) of B applied alone in corresponding dose: 12.3%
Eleusine indica [2]; Table 83, 15 g a.i./ha
  Control effect (%) of B applied alone in corresponding dose: 39.7%
Eleusine indica [2]; Table 83, 30 g a.i./ha
  Control effect (%) of B applied alone in corresponding dose: 73.1%
